“Also recorded” adds a separate entry of the source. Where two headings read alike, the source gives them in different places.
Columns and labels:
[1] = tested on: NaCN induced current from isolated guinea pig ventricular myocytes; assay: NaCN induced outward current, whole-cell patch clamp in single ventricular myocytes; type: cell-based; settings: for peak current densities induced by NaCN in the presence of blocker / ratio of peak current density induced by NaCN in the presence of blocker to that on exposure to NaCN alone: blocker 200 μM; for sensitivity of NaCN induced current in the presence of altered internal pH: quinidine 0.5 mM (pHin 6.0), Zn^2+ 5 mM (pHin 9.0)
[2] = tested on: NaCN induced current from isolated guinea pig ventricular myocytes; settings: Ba^2+ 5 mM, extracellular, previously demonstrated; cited from earlier work
IKATP = IKATP activated by pinacidil together with low intracellular ATP, patch clamp in myocytes; type: cell-based, guinea pig; settings: for effect on IKATP: IKATP activated by pinacidil 100 μM with intracellular ATP 0.1 mM, Zn^2+ 3 mM
Description: All the cells were held at 0 mV.
Single Guinea pig heart cell preparation. Single cardiac myocytes were enzymatically isolated from adult male guinea pig hearts as described in (Gao et al 1992, J Physiol 449:689-704). Guinea pigs, weighing 300 to 500 g, were sacrificed by peritoneal injection with sodium pentobarbital solution (1 ml of 390 mg/ml) in accordance with an approved protocol approved by the IACUC committee at SUNY-Stony Brook. The heart was isolated and placed in Ca^2+ free Tyrode solution and the aorta was cannulated. The heart was then perfused with 50 ml of Ca2+ free Tyrode solution followed by 100 ml of Tyrode solution containing 30 mol/L CaCl2 and 0.4 mg/ml collagenase at 37° C. The heart was then placed in Ca^2+ free Tyrode solution at room temperature for 2 hours. Afterward, a piece of the ventricle was dissected and teased into smaller pieces in Kraft-Brühe (KB) solution (Isenberg et al., 1982 Pflugers Arch 395:6-18) containing (in mM): KCl 83; K2HPO4 30; MgSO4 5; Na-Pyruvic Acid 5; β-OH-Butyric Acid 5; Creatine 5; Taurine 20; Glucose 10; EGTA 0.5; KOH 2; Na2-ATP 5; pH was adjusted to 7.2 by KOH. The dissociated cells were then kept in KB solution at room temperature for at least 1 hour before the experiment. All solutions were bubbled with 100% O2. The isolated cells were stored in KB solution. An Axopatch 1D amplifier (Axon Instruments, Inc) and the patch clamp technique were employed to observe cell membrane current. Patch-pipette resistances were 2 to 3 MΩ before sealing. The pipette solution contained (in mM): K-Aspartic Acid 125; KCl 15; KOH 10; MgCl2 1; HEPES 10; EGTA 11; Mg-ATP 1; pH was adjusted to 7.2 by KOH. The external Tyrode solution contained (in mM): NaCl 137.7; NaOH 2.3; KCl 4; MgCl2 1; HEPES 5; CaCl2 1; CdCl2 1; Glucose 10; pH was adjusted to 7.4 by NaOH. Under these conditions, the L-type Ca^2+ current, the Na^+/Ca^2+ exchange current and the Na^+/K^+ pump current will be absent. […] All experiments were carried out at room temperature (22±1° C.). […] All patch clamp data were digitized by the data acquisition program pClamp8 (Axon Instruments, Inc) for later analysis. Cell capacitance was obtained for each cell and currents were normalized to cell capacitances.

[3] = tested on: temperature jump (TJ) induced current in guinea pig myocytes; assay: Temperature jump (TJ) induced current in myocytes; type: cell-based
Source text: FIG. 15. The characterization of temperature jump (TJ) induced current in guinea pig myocytes. A. Sample trace of TJ induced outward current. Note the current can decay on its own. B. The TJ induced current (upper panel) and its I/V relationships (lower panel). Cells were held at […] and were subject to depolarizing voltage ramps from […] to +50 mV (250 ms duration) with a frequency of 0.1 Hz. Since the current measured at the peak c is out of the current amplitude range of the amplifier, another point near the peak (b) was chosen to construct the I/V curves of the current. C, D, E, and F. Biophysical properties of TREK-1 a heat-activated K2P channel. […] I. Summary of the inhibitory effects of Zn^2+ and quinidine on the TJ induced current (unpaired p<0.01, t-test).

myocytes = assay: Myocyte shrinkage associated with the NaCN induced current; type: cell-based, guinea pig; settings: quinidine 0.5 mM, Zn2+ 3 mM

In the case of `Nc1ccncc1` [4AP, 4-Aminopyridine], the “peak current densities of NaCN induced current with blocker” value ([1]; 4AP 4 mM, n=6) is reported as 24.1±5.2 pA/pF and the “effect on NaCN induced current” value ([1]; agent 4 mM) is reported as “not reduced”.
With `CCCCCC(O)CCCC(=O)O` (centres unmarked) [5-HD, 5-hydroxydecanoic acid] the “effect on NaCN induced current” value ([1]; agent 200 μM) was “does not inhibit the NaCN induced current; also recorded: does not result in a reduced current amplitude”, the “peak current densities induced by NaCN in the presence of blocker” value [1] was 24.7±2.6 pA/pF and the “ratio of peak current density induced by NaCN in the presence of blocker to that on exposure to NaCN alone” value [1] was 1.3±0.1.
For `[Ba+2].[Cl-].[Cl-]` [Ba^2+, BaCl2], the “effect on NaCN induced current” value ([1]; Ba^2+ 20 mM) was “can prevent the appearance of the NaCN induced current”, the “effect on NaCN induced current” value ([1]; Ba^2+ 20 mM, listed as Ba2+) was “abolished” and the “effect on NaCN induced current” value ([1]; Ba^2+ 5-10 mM) was “Partial inhibition”. For the same compound, the “effect on NaCN induced current” value ([1]; Ba^2+ 20-40 mM) was “almost complete elimination”, the “effect on NaCN induced current” value ([1]; agent 1 mM) was “neither Ba^2+ (1 mM, upper panel) nor Cs^+ (3 mM, lower panel) can prevent the appearance of the NaCN induced current” and the “effect on NaCN induced current” value [2] was “partially blocked”.
For `[Cl-].[Cs+]` [Cs^+, CsCl], the “peak current densities of NaCN induced current with blocker” value ([1]; Cs^+ 3 mM, n=5) was 19.1±2.4 pA/pF, the “effect on NaCN induced current” value ([1]; agent 3 mM, listed as Cs+) was “insensitive” and the “effect on NaCN induced current” value ([1]; agent 3 mM, listed as CsCl) was “not affected”.
In the case of `COC(=O)[C@@H](N)CCCNC(=N)N[N+](=O)[O-]` [L-NAME], the “effect on NaCN induced current” value ([1]; agent 200 μM) is reported as “reduced; also recorded: reduces the current”.
With `N=C(N)NCCC[C@H](N)C(=O)O` [L-arginine] the “effect on NaCN induced current” value [1] was “can additionally activate an outward current; also recorded: increases the NaCN induced current”.
For `[Cl-].[Cl-].[Zn+2]` [Zn^2+, ZnCl2], the “effect on NaCN induced current” value ([1]; Zn^2+ 5 mM) was “completely abolish”, the “effect on NaCN induced current” value ([1]; agent 3 mM) was “reversibly abolished; also recorded: can prevent the appearance of the current induced by NaCN” and the “effect on NaCN induced current” value ([1]; agent 3 mM, listed as ZnCl2) was “completely blocked; also recorded: abolished”. The “sensitivity of NaCN induced current in the presence of altered internal pH” value [1] was “remains sensitive”, the “effect on IKATP” value (IKATP) was “cannot be blocked; also recorded: unaffected” and the “effect on TJ induced current” value [3] was “can prevent the appearance of TJ induced current”. The “effect on NaCN induced current and cell shrinkage” value (myocytes) was “prevent the appearance of the NaCN induced current and cell shrinkage”.
With `COc1ccc(Cl)cc1C(=O)NCCc1ccc(S(=O)(=O)NC(=O)NC2CCCCC2)cc1` [glibenclamide] the “effect on NaCN induced current” value ([1]; agent 200 μM) was “does not prevent the appearance of the NaCN induced current; also recorded: could not be abolished”, the “peak current densities induced by NaCN in the presence of blocker” value [1] was 23.0±2.1 pA/pF and the “ratio of peak current density induced by NaCN in the presence of blocker to that on exposure to NaCN alone” value [1] was 1.2±0.1. For the same compound, the “effect on IKATP” value (IKATP) was “abolished”.
In the case of `CCCCC/C=C\C/C=C\C/C=C\C/C=C\CCCC(=O)N[C@H](C)CO` [methanandamide], the “effect on NaCN induced current” value ([1]; methanandamide 20 μM) is reported as “does not block the current induced by NaCN”, the “effect on NaCN induced current” value ([1]; methanandamide 20 μM to 100 μM) is reported as “does not prevent the appearance of the NaCN induced current” and the “effect on NaCN induced current” value ([1]; methanandamide 40 and 100 μM) is reported as “significant increase”. For the same compound, the “effect on NaCN induced current” value ([1]; methanandamide 40 and 100 μM, listed as Methanandamide) was “significantly increased”.
In the case of `CC(N/C(=N\C#N)Nc1ccncc1)C(C)(C)C` (centres unmarked) [pinacidil], the “activation of IKATP” value (IKATP; pinacidil 100 μM together with low intracellular ATP 0.1 mM) is reported as “activated”.
For `C=C[C@H]1C[N@@]2CC[C@H]1C[C@@H]2[C@@H](O)c1ccnc2ccc(OC)cc12` [quinidine], the “effect on NaCN induced current” value ([1]; agent 1 mM) was “can prevent the appearance of the current induced by NaCN”, the “effect on NaCN induced current” value ([1]; quinidine 0.5 mM) was “completely abolished; also recorded: can both block the peak current induced by NaCN and prevent its occurrence” and the “sensitivity of NaCN induced current in the presence of altered internal pH” value [1] was “remains sensitive”. The “effect on IKATP” value (IKATP) was “unaffected”, the “effect on TJ induced current” value [3] was “partially blocked” and the “effect on NaCN induced current and cell shrinkage” value (myocytes) was “prevent the appearance of the NaCN induced current and cell shrinkage”.

Source: patent US20140113314A1, “Two Pore Channels as a Therapeutic Target to Protect Against Myocardial Ischemia and as an Adjuvant in Cardiac Surgery” (priority 2006, published 2014)
